Measurements as given in PubChem BioAssay (NCI).
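Each compound was tested at five concentrations against cells in 96-well plates for 48 hours. Abbreviation: GI50, concentration required for 50% inhibition of growth. TGI: total growth inhibition.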

Key:
Experiment in all cases: NCI anticancer screen, dose series, 48 h
[1] = system: TK-10 renal
[2] = system: K-562 leukemia
[3] = system: EKVX NSCLC
[4] = system: 786-0 renal
[5] = system: LOX IMVI melanoma
[6] = system: NCI-H226 lung
[7] = system: A498 renal
[8] = system: NCI-H460 lung
[9] = system: DU-145 prostate
[10] = system: NCI/ADR-RES ovarian

For NNC(=O)/C(=C/c1ccc(Cl)cc1Cl)NC(=O)c1ccccc1, the TGI [1] was greater than 100 µM, the TGI [2] was greater than 100 µM and the TGI [3] was greater than 100 µM. For the same compound, the TGI [4] was greater than 100 µM, the TGI [5] was greater than 100 µM and the TGI [6] was greater than 100 µM. For the same compound, the TGI [7] was greater than 100 µM and the TGI [8] was greater than 100 µM.

With Cc1ccc(C(=O)c2nnc(C(=O)c3ccc(C)cc3)nn2)cc1 the TGI [1] was greater than 100 µM, the TGI [2] was 55.8 µM and the TGI [3] was greater than 100 µM. It also gave a TGI [4] greater than 100 µM, a TGI [5] of 35.6 µM and a TGI [6] greater than 100 µM. It also gave a TGI [8] of 33.8 µM.

Work on CC1(C)C(=NNC(=O)C[N+](C)(C)C)C(C)(C)C1=NNC(=O)C[N+](C)(C)C yielded a TGI [1] greater than 100 µM, a TGI [2] greater than 100 µM and a TGI [3] greater than 100 µM. The TGI [4] was greater than 100 µM, the TGI [5] was greater than 100 µM and the TGI [6] was greater than 100 µM. For the same compound, the TGI [7] was greater than 100 µM and the TGI [8] was greater than 100 µM.

Cc1c(C(=O)C/C(=N\O)C(=O)Nc2cc(Cl)c(Cl)cc2Cl)[n+](=O)c2ccccc2n1[O-] showed a TGI [1] of 72.2 µM, a TGI [2] greater than 100 µM and a TGI [3] of 43.6 µM. It also gave a TGI [4] greater than 100 µM, a TGI [5] of 43.6 µM and a TGI [6] of 37.5 µM. The TGI [7] was 56.2 µM and the TGI [8] was 35.2 µM.

With Nc1ccccc1C#C/C=C\C#Cc1cccs1 the GI50 [1] was 17.3 µM, the TGI [1] was 39.8 µM and the GI50 [2] was 3.53 µM. For the same compound, the TGI [2] was greater than 100 µM, the GI50 [3] was 12.7 µM and the TGI [3] was 35.1 µM. For the same compound, the GI50 [9] was 10.2 µM, the TGI [9] was 31.6 µM and the GI50 [4] was 13.5 µM. The TGI [4] was 35.1 µM, the GI50 [5] was 3.55 µM and the TGI [5] was 14.7 µM. It also gave a GI50 [6] of 2.22 µM, a TGI [6] of 16.9 µM and a GI50 [10] of 8.69 µM. For the same compound, the TGI [10] was 27.7 µM, the GI50 [8] was 13.7 µM and the TGI [8] was 42.5 µM.

COc1ccc(-c2ccc(/C=N/n3c(COc4ccc(Cl)cc4Cl)nn(CN4CCOCC4)c3=S)o2)c([N+](=O)[O-])c1 gave a GI50 [1] of 14.1 µM, a TGI [1] of 49.2 µM and a GI50 [2] of 18.2 µM. For the same compound, the TGI [2] was 46.6 µM, the GI50 [3] was greater than 100 µM and the TGI [3] was greater than 100 µM. The GI50 [9] was greater than 100 µM, the TGI [9] was greater than 100 µM and the GI50 [4] was 32.5 µM. For the same compound, the TGI [4] was greater than 100 µM, the GI50 [10] was 21.1 µM and the TGI [10] was 58.7 µM. It also gave a GI50 [8] of 25.6 µM and a TGI [8] greater than 100 µM.

For O=C(CN1CCOCC1)Nc1nc(-c2ccc(Cl)cc2)cs1, the TGI [1] was greater than 100 µM, the TGI [2] was 94.5 µM and the TGI [3] was greater than 100 µM. The TGI [4] was greater than 100 µM, the TGI [5] was 58.7 µM and the TGI [6] was 60.9 µM. For the same compound, the TGI [7] was greater than 100 µM and the TGI [8] was greater than 100 µM.

In the case of N#Cc1c(N2CCCC2)[nH]c(=O)c(C(c2c(Cl)cccc2Cl)c2c(O)c(C#N)c(N3CCCC3)[nH]c2=O)c1O, the GI50 [1] is reported as 12.4 µM, the TGI [1] is reported as 29.6 µM and the GI50 [2] is reported as 27.4 µM. For the same compound, the TGI [2] was greater than 100 µM, the GI50 [3] was 0.0367 µM and the TGI [3] was 17.1 µM. The GI50 [9] was 5.57 µM, the TGI [9] was 18.4 µM and the GI50 [4] was 4.34 µM. For the same compound, the TGI [4] was greater than 100 µM, the GI50 [5] was 11.6 µM and the TGI [5] was 37.2 µM. It also gave a GI50 [6] of 10.9 µM, a TGI [6] of 24.4 µM and a GI50 [10] of 15.4 µM. For the same compound, the TGI [10] was 33.8 µM, the GI50 [8] was 18.2 µM and the TGI [8] was 38.4 µM.

CSc1ccc(C2OC(=O)c3ccccc32)c2ccccc12 (stereo unspecified) showed a TGI [2] greater than 100 µM, a TGI [3] greater than 100 µM and a TGI [4] greater than 100 µM. The TGI [5] was greater than 100 µM and the TGI [8] was greater than 100 µM.

C/C(=N\NS(=O)(=O)c1ccccc1)c1ccc(Cl)c(Cl)c1 gave a TGI [1] greater than 100 µM, a TGI [2] greater than 100 µM and a TGI [3] greater than 100 µM. The TGI [4] was greater than 100 µM, the TGI [5] was greater than 100 µM and the TGI [6] was greater than 100 µM. For the same compound, the TGI [7] was greater than 100 µM and the TGI [8] was greater than 100 µM.

With CCCCCCCCCCCC(=O)OCC1OC(n2cc(F)c(=O)[nH]c2=O)C(NC(=O)OCc2ccccc2)C(OC(=O)CCCCCCCCCCC)C1O (stereo unspecified) the TGI [1] was greater than 100 µM, the TGI [2] was greater than 100 µM and the TGI [3] was greater than 100 µM. The TGI [4] was greater than 100 µM, the TGI [5] was greater than 100 µM and the TGI [6] was greater than 100 µM. It also gave a TGI [7] greater than 100 µM and a TGI [8] greater than 100 µM.

Compound NC1C[C@H](n2cc(/C=C/Br)c(=O)[nH]c2=O)C[C@@H]1CO (stereo partly specified) has a TGI [1] greater than 100 µM, a TGI [2] greater than 100 µM and a TGI [3] greater than 100 µM. For the same compound, the TGI [4] was greater than 100 µM, the TGI [5] was greater than 100 µM and the TGI [6] was greater than 100 µM. It also gave a TGI [7] greater than 100 µM and a TGI [8] greater than 100 µM.

CCCCC(CC)CN=C(N)NC(N)=NCCCCCCN=C(N)NC(N)=NCC(CC)CCCC (stereo unspecified) was tested, and the GI50 [1] was 4.03 µM, the TGI [1] was greater than 100 µM and the GI50 [3] was 1.74 µM. The TGI [3] was 4.73 µM, the GI50 [9] was 3.26 µM and the TGI [9] was 11.4 µM. For the same compound, the GI50 [4] was 2.16 µM, the TGI [4] was 4.91 µM and the GI50 [6] was 2.38 µM. The TGI [6] was 7.48 µM, the GI50 [10] was 10.4 µM and the TGI [10] was 33.6 µM.

Work on Nc1ccn(CCNCCn2cnc3nc(N)[nH]c(=O)c32)c(=O)n1 yielded a TGI [1] greater than 100 µM, a TGI [2] greater than 100 µM and a TGI [3] greater than 100 µM. For the same compound, the TGI [4] was greater than 100 µM, the TGI [5] was greater than 100 µM and the TGI [6] was greater than 100 µM. It also gave a TGI [7] greater than 100 µM and a TGI [8] greater than 100 µM.

For COc1ccc(OC)c(/C=C2\SC(=S)NC2=O)c1, the GI50 [1] was 28.8 µM, the TGI [1] was greater than 100 µM and the GI50 [2] was 42.5 µM. The TGI [2] was greater than 100 µM, the GI50 [3] was 14.2 µM and the TGI [3] was 42.1 µM. The GI50 [9] was 20 µM, the TGI [9] was 74.3 µM and the GI50 [4] was 30.8 µM. The TGI [4] was greater than 100 µM, the GI50 [5] was 26.6 µM and the TGI [5] was greater than 100 µM. The GI50 [10] was 25.4 µM, the TGI [10] was 87.5 µM and the GI50 [8] was 32.6 µM. The TGI [8] was greater than 100 µM.

Compound CCN(CC)c1ccc(C(=O)c2ccccc2C(=O)O)c(O)c1 has a TGI [1] greater than 100 µM, a TGI [2] greater than 100 µM and a TGI [3] greater than 100 µM. It also gave a TGI [4] greater than 100 µM, a TGI [5] greater than 100 µM and a TGI [7] greater than 100 µM. For the same compound, the TGI [8] was greater than 100 µM.

Compound O=C(O)/C=C\C(=O)N1C/C(=C\c2ccccc2Cl)C(=O)/C(=C/c2ccccc2Cl)C1 has a GI50 [1] of 4.47 µM, a TGI [1] of 12.3 µM and a GI50 [2] of 2.44 µM. The TGI [2] was 82 µM, the GI50 [3] was 5.24 µM and the TGI [3] was 18.3 µM. The GI50 [9] was 2.43 µM, the TGI [9] was 5.48 µM and the GI50 [4] was 2.18 µM. The TGI [4] was 4.06 µM, the GI50 [5] was 1.56 µM and the TGI [5] was 3.71 µM. The GI50 [6] was 1.97 µM, the TGI [6] was 3.84 µM and the GI50 [10] was 4.08 µM. For the same compound, the TGI [10] was 22.5 µM.

COc1ccc2nc(-c3cccs3)cc(C(O)CN3CCSCC3)c2c1 (stereo unspecified) gave a TGI [1] of 91.8 µM, a TGI [2] of 51.5 µM and a TGI [3] of 97.1 µM. The TGI [4] was 46.2 µM, the TGI [5] was 34.4 µM and the TGI [8] was 45.1 µM.

In the case of COC(=O)C(=O)C1(CCC(C)=O)c2ccccc2-c2c(C)ccc(C)c21 (stereo unspecified), the TGI [1] is reported as greater than 100 µM, the TGI [2] is reported as greater than 100 µM and the TGI [3] is reported as greater than 100 µM. It also gave a TGI [4] greater than 100 µM, a TGI [5] greater than 100 µM and a TGI [6] greater than 100 µM. It also gave a TGI [7] greater than 100 µM and a TGI [8] greater than 100 µM.

CC1SC2=NC3=C(c4ccccc4C3=O)C(c3ccc(F)cc3)N2C1=O (stereo unspecified) showed a TGI [1] greater than 100 µM, a TGI [2] greater than 100 µM and a TGI [3] greater than 100 µM. It also gave a TGI [4] greater than 100 µM, a TGI [6] greater than 100 µM and a TGI [7] greater than 100 µM. For the same compound, the TGI [8] was greater than 100 µM.

With O=C(N/C(=C\c1ccc2c(c1)OCO2)c1nc2ccccc2[nH]1)c1ccccc1 the TGI [1] was 92.3 µM, the TGI [2] was greater than 79.6 µM and the TGI [3] was greater than 100 µM. It also gave a TGI [4] greater than 100 µM, a TGI [5] greater than 100 µM and a TGI [6] of 77.1 µM. It also gave a TGI [7] greater than 93.8 µM and a TGI [8] greater than 100 µM.
